In the NIST ThermoML archive (doi:10.1021/je200350a):
± gives the expanded uncertainty stated by the source.

Assay: xn = mol fraction of the nth substance listed
Details: 101 kPa, Liquid; for viscosity: Capillary tube (Ostwald / Ubbelohde) method

Molecule `CCCCBr` [1-bromobutane] + CC1CCCCC1 has a viscosity (293.15 K, x2 = 0.1014) of 0.6398 ± 0.0063 mPa·s, a viscosity (293.15 K, x2 = 0.1535) of 0.6402 ± 0.0063 mPa·s and a viscosity (293.15 K, x2 = 0.2607) of 0.6441 ± 0.0064 mPa·s. It also gave a viscosity (293.15 K, x2 = 0.372) of 0.6465 ± 0.0064 mPa·s, a viscosity (293.15 K, x2 = 0.4293) of 0.6517 ± 0.0064 mPa·s and a viscosity (293.15 K, x2 = 0.5473) of 0.6581 ± 0.0065 mPa·s. For the same molecule, the viscosity (293.15 K, x2 = 0.608) was 0.6622 ± 0.0065 mPa·s, the viscosity (293.15 K, x2 = 0.7979) was 0.6877 ± 0.0067 mPa·s and the viscosity (293.15 K, x2 = 0.8639) was 0.6993 ± 0.0068 mPa·s. It also gave a mass density (293.15 K, x2 = 0.1014) of 1218.7 ± 1.3 kg/m3, a mass density (293.15 K, x2 = 0.1535) of 1187.3 ± 1.2 kg/m3 and a mass density (293.15 K, x2 = 0.2607) of 1129.8 ± 1 kg/m3. It also gave a mass density (293.15 K, x2 = 0.372) of 1071 ± 0.9 kg/m3, a mass density (293.15 K, x2 = 0.4293) of 1041 ± 0.8 kg/m3 and a mass density (293.15 K, x2 = 0.5473) of 978.8 ± 0.8 kg/m3. For the same molecule, the mass density (293.15 K, x2 = 0.608) was 946.5 ± 0.8 kg/m3, the mass density (293.15 K, x2 = 0.7979) was 858.3 ± 1 kg/m3 and the mass density (293.15 K, x2 = 0.8639) was 830 ± 1 kg/m3. For the same molecule, the viscosity (298.15 K, x2 = 0.1014) was 0.6033 ± 0.006 mPa·s, the viscosity (298.15 K, x2 = 0.1535) was 0.6034 ± 0.006 mPa·s and the viscosity (298.15 K, x2 = 0.2607) was 0.6066 ± 0.006 mPa·s. For the same molecule, the viscosity (298.15 K, x2 = 0.372) was 0.6104 ± 0.0061 mPa·s, the viscosity (298.15 K, x2 = 0.4293) was 0.6152 ± 0.0061 mPa·s and the viscosity (298.15 K, x2 = 0.5473) was 0.62 ± 0.0062 mPa·s. The viscosity (298.15 K, x2 = 0.608) was 0.6235 ± 0.0062 mPa·s, the viscosity (298.15 K, x2 = 0.7979) was 0.6457 ± 0.0064 mPa·s and the viscosity (298.15 K, x2 = 0.8639) was 0.6558 ± 0.0065 mPa·s. The mass density (298.15 K, x2 = 0.1014) was 1212.2 ± 1.3 kg/m3, the mass density (298.15 K, x2 = 0.1535) was 1180.4 ± 1.2 kg/m3 and the mass density (298.15 K, x2 = 0.2607) was 1123 ± 1 kg/m3. The mass density (298.15 K, x2 = 0.372) was 1064.8 ± 0.9 kg/m3, the mass density (298.15 K, x2 = 0.4293) was 1035.5 ± 0.8 kg/m3 and the mass density (298.15 K, x2 = 0.5473) was 973.2 ± 0.8 kg/m3. It also gave a mass density (298.15 K, x2 = 0.608) of 941.2 ± 0.8 kg/m3, a mass density (298.15 K, x2 = 0.7979) of 853.5 ± 1 kg/m3 and a mass density (298.15 K, x2 = 0.8639) of 825.8 ± 1.1 kg/m3. For the same molecule, the viscosity (303.15 K, x2 = 0.1014) was 0.5754 ± 0.0058 mPa·s, the viscosity (303.15 K, x2 = 0.1535) was 0.5745 ± 0.0058 mPa·s and the viscosity (303.15 K, x2 = 0.2607) was 0.5762 ± 0.0058 mPa·s. The viscosity (303.15 K, x2 = 0.372) was 0.578 ± 0.0058 mPa·s, the viscosity (303.15 K, x2 = 0.4293) was 0.5826 ± 0.0058 mPa·s and the viscosity (303.15 K, x2 = 0.5473) was 0.5854 ± 0.0059 mPa·s. For the same molecule, the viscosity (303.15 K, x2 = 0.608) was 0.5882 ± 0.0059 mPa·s, the viscosity (303.15 K, x2 = 0.7979) was 0.6074 ± 0.0061 mPa·s and the viscosity (303.15 K, x2 = 0.8639) was 0.6166 ± 0.0061 mPa·s. It also gave a mass density (303.15 K, x2 = 0.1014) of 1206.3 ± 1.3 kg/m3, a mass density (303.15 K, x2 = 0.1535) of 1174.2 ± 1.2 kg/m3 and a mass density (303.15 K, x2 = 0.2607) of 1118.5 ± 1 kg/m3. The mass density (303.15 K, x2 = 0.372) was 1059.4 ± 0.9 kg/m3, the mass density (303.15 K, x2 = 0.4293) was 1029.9 ± 0.8 kg/m3 and the mass density (303.15 K, x2 = 0.5473) was 967.8 ± 0.8 kg/m3. The mass density (303.15 K, x2 = 0.608) was 935.8 ± 0.8 kg/m3, the mass density (303.15 K, x2 = 0.7979) was 849 ± 1 kg/m3 and the mass density (303.15 K, x2 = 0.8639) was 821.8 ± 1.1 kg/m3. It also gave a viscosity (308.15 K, x2 = 0.1014) of 0.5463 ± 0.0055 mPa·s, a viscosity (308.15 K, x2 = 0.1535) of 0.5458 ± 0.0055 mPa·s and a viscosity (308.15 K, x2 = 0.2607) of 0.5462 ± 0.0055 mPa·s. It also gave a viscosity (308.15 K, x2 = 0.372) of 0.5479 ± 0.0055 mPa·s, a viscosity (308.15 K, x2 = 0.4293) of 0.5516 ± 0.0056 mPa·s and a viscosity (308.15 K, x2 = 0.5473) of 0.554 ± 0.0056 mPa·s. The viscosity (308.15 K, x2 = 0.608) was 0.5561 ± 0.0056 mPa·s, the viscosity (308.15 K, x2 = 0.7979) was 0.5721 ± 0.0058 mPa·s and the viscosity (308.15 K, x2 = 0.8639) was 0.5806 ± 0.0058 mPa·s. It also gave a mass density (308.15 K, x2 = 0.1014) of 1198.2 ± 1.2 kg/m3, a mass density (308.15 K, x2 = 0.1535) of 1167.5 ± 1.2 kg/m3 and a mass density (308.15 K, x2 = 0.2607) of 1111 ± 1 kg/m3. The mass density (308.15 K, x2 = 0.372) was 1053.2 ± 0.9 kg/m3, the mass density (308.15 K, x2 = 0.4293) was 1024.4 ± 0.8 kg/m3 and the mass density (308.15 K, x2 = 0.5473) was 962.5 ± 0.8 kg/m3. The mass density (308.15 K, x2 = 0.608) was 930.7 ± 0.9 kg/m3, the mass density (308.15 K, x2 = 0.7979) was 843.8 ± 1 kg/m3 and the mass density (308.15 K, x2 = 0.8639) was 816.5 ± 1.1 kg/m3.
